Experimental data: ChEMBL document CHEMBL1201862, “PubChem BioAssay data set” (2004)
Active and inactive are the calls of the source.

Assays:
[1] = molecular target: T1, Short transient receptor potential channel 4 (Mus musculus, UniProt Q9QUQ5); assay: mouse TRPC4 channel activators, dose response, cell-based, HEK293 TRPC4/mu-opioid, Fluo-4 calcium (AID 434937); type: functional
T1 sequence (Q9QUQ5 whole entry): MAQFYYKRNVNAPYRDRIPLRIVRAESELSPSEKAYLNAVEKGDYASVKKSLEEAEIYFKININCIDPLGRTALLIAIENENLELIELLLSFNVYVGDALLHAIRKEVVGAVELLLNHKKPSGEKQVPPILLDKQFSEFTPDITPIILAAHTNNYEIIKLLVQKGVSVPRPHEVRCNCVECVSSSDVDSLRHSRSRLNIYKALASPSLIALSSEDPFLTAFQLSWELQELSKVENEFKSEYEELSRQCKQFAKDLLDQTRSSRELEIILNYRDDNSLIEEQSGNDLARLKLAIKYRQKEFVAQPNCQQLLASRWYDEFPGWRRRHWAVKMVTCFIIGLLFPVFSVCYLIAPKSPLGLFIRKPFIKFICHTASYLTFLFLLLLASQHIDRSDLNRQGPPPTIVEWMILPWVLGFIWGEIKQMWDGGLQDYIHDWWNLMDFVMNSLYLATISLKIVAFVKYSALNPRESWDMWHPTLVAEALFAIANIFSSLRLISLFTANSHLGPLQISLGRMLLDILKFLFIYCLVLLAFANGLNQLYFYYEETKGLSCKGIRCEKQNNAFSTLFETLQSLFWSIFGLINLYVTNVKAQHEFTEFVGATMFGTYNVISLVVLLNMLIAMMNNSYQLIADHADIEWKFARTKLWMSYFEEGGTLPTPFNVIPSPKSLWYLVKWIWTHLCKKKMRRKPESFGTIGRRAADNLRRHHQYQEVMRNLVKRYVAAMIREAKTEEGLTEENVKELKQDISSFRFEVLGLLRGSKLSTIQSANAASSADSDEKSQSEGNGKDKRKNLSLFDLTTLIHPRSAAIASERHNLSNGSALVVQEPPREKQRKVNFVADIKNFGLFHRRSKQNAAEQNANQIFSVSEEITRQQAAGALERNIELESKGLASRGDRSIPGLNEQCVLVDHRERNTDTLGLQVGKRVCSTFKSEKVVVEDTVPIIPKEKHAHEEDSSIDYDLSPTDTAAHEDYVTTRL

Estrogen receptor = molecular target: T2, Estrogen receptor (Homo sapiens, UniProt P03372);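 note: potency for inhibiting coactivator peptide recruitment to the receptor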
T2 sequence (P03372 whole entry): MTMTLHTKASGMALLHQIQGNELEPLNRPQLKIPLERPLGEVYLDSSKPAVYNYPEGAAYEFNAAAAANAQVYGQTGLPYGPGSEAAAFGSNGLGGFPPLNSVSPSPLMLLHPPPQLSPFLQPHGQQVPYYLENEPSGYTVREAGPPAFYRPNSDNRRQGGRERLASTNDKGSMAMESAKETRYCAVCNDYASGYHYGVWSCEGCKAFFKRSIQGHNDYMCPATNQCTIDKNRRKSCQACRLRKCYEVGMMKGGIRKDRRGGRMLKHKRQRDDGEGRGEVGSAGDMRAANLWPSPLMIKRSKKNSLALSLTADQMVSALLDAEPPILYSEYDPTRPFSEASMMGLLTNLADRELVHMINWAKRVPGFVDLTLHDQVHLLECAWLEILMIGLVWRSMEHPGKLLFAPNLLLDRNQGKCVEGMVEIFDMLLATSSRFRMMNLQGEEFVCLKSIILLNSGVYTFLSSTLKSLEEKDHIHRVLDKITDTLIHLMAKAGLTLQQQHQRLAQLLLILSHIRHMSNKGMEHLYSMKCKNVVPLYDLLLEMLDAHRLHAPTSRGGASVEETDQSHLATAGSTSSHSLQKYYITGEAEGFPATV

SUMO-activating enzyme = SUMO-activating enzyme (Homo sapiens, UniProt Q9UBT2); assay: SUMOylation inhibitor hit validation, confirmation, SUMOylation inhibitor project, biochemical, AlphaScreen (AID 2018); type: functional
Chain of SUMO-activating enzyme (Q9UBE0 whole entry): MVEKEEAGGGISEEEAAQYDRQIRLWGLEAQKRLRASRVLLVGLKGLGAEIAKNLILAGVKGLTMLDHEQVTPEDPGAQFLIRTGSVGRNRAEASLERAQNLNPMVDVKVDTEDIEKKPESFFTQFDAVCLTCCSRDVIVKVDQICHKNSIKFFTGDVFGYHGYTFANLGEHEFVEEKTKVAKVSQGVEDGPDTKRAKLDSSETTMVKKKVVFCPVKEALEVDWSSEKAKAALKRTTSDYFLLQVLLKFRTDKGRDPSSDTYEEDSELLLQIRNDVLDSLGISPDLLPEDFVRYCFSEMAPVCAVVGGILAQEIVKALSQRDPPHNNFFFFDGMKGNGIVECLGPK
Chain of SUMO-activating enzyme (Q9UBT2 whole entry): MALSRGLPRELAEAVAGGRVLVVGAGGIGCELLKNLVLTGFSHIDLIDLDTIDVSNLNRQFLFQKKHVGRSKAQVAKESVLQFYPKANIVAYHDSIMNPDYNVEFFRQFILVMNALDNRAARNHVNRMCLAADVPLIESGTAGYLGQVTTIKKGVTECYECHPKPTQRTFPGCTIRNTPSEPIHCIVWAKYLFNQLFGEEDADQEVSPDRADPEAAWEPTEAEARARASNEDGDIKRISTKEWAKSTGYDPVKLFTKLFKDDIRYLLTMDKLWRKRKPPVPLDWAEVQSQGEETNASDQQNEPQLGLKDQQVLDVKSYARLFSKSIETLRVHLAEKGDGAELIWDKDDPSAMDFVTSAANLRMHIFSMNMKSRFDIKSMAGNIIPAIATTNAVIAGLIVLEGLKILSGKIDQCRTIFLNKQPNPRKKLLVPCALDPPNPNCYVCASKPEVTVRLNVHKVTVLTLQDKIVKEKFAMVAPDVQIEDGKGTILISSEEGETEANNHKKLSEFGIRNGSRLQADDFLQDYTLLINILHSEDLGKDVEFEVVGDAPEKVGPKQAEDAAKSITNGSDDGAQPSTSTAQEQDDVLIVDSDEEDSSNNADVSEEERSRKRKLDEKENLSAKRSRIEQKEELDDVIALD

[2] = molecular target: Peroxisome proliferator-activated receptor gamma/Nuclear receptor coactivator 2 (Homo sapiens, UniProt P37231); assay: (§1) TR-FRET dose response biochemical High Throughput Screening assay for agonists of the steroid receptor coactivator 2 (SRC-2) recruitment by the peroxisome proliferator-activated receptor gamma (PPAR gamma): non-selective agonists. [Related pubchem assays: 1297, 1032 ]; type: functional
Chain of Peroxisome proliferator-activated receptor gamma/Nuclear receptor coactivator 2 (P37231 whole entry): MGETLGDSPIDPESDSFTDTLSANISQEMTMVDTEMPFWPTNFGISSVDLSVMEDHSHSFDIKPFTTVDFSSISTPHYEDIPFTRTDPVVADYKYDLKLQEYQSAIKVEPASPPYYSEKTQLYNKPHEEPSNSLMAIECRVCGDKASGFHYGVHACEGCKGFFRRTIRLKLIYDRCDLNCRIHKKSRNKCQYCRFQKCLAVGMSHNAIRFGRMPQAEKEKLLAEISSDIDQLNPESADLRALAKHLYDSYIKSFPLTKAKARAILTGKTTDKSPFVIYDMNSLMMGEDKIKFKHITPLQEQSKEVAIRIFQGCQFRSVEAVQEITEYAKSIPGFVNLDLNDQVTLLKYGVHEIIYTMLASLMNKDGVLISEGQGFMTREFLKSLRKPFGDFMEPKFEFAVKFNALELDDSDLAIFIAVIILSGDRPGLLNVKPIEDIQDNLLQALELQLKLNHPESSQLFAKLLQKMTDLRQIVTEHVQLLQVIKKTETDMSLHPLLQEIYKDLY
Chain of Peroxisome proliferator-activated receptor gamma/Nuclear receptor coactivator 2 (Q15596 whole entry, further chain): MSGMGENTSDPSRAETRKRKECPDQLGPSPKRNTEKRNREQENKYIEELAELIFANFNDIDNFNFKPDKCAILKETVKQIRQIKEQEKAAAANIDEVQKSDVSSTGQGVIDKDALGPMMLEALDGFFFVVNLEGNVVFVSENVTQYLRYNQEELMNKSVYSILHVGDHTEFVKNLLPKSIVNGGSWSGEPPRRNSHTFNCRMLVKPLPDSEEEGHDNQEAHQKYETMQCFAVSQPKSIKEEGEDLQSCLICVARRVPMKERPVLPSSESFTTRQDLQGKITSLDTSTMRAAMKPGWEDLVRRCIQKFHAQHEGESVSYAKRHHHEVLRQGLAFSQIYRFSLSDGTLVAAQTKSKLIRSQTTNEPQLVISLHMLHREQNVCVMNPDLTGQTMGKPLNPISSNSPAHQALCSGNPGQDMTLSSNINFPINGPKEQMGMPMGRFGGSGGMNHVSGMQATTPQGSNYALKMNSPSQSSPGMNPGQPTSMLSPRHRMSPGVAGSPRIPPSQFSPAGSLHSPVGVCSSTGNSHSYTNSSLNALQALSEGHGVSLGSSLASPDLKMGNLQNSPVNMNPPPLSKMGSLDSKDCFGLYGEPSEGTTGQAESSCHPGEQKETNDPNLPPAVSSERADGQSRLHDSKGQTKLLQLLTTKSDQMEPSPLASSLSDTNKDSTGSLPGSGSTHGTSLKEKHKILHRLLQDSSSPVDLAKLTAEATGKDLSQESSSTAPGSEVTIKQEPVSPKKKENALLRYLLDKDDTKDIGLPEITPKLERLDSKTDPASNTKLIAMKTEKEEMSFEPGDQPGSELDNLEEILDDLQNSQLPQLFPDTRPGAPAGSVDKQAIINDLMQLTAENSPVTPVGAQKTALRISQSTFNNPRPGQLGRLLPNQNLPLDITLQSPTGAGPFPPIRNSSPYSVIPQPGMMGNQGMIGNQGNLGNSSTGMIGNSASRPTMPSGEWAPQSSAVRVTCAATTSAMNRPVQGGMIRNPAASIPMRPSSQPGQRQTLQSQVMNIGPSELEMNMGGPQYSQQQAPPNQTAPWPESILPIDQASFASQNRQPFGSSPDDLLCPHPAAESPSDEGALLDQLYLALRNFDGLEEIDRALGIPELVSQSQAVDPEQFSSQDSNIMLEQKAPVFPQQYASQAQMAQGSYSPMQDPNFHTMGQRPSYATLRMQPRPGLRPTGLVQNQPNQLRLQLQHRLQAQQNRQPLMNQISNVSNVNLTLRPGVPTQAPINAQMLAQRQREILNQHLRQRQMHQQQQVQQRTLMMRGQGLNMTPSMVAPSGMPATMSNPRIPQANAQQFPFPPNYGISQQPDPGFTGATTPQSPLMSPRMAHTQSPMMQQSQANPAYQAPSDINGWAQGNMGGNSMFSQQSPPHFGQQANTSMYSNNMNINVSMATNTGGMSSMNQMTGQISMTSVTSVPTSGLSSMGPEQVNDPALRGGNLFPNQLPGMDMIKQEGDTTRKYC

[3] = molecular target: Peroxisome proliferator-activated receptor gamma/Nuclear receptor coactivator 1 (Homo sapiens, UniProt P37231); assay: as §1, with “1 (SRC-1)” for “2 (SRC-2)”, “assays (depositor defined):AID1300, AID1808, AID504735, AID631]” for “assays: 1297, 1032 ]”; type: protein assay
[4] = cytotoxicity in KRAS-transformed pancreatic duct cells, primary screen, cell-based, fluorescence, HTS (AID 431); type: functional; details: Homo sapiens;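 note: cell line used: HPDE-C7K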
[5] = molecular target: Peroxisome proliferator-activated receptor gamma/Nuclear receptor coactivator 3 (Homo sapiens, UniProt P37231); assay: as §1, with “3 (SRC-3)” for “2 (SRC-2)”, “1301 (Confirmation screen.), 1048 (Primary screen.)]” for “1297, 1032 ]”; type: functional
Chain of Peroxisome proliferator-activated receptor gamma/Nuclear receptor coactivator 3 (P37231 whole entry): as the sequence (P37231 whole entry) above
Chain of Peroxisome proliferator-activated receptor gamma/Nuclear receptor coactivator 3 (Q9Y6Q9 whole entry, further chain): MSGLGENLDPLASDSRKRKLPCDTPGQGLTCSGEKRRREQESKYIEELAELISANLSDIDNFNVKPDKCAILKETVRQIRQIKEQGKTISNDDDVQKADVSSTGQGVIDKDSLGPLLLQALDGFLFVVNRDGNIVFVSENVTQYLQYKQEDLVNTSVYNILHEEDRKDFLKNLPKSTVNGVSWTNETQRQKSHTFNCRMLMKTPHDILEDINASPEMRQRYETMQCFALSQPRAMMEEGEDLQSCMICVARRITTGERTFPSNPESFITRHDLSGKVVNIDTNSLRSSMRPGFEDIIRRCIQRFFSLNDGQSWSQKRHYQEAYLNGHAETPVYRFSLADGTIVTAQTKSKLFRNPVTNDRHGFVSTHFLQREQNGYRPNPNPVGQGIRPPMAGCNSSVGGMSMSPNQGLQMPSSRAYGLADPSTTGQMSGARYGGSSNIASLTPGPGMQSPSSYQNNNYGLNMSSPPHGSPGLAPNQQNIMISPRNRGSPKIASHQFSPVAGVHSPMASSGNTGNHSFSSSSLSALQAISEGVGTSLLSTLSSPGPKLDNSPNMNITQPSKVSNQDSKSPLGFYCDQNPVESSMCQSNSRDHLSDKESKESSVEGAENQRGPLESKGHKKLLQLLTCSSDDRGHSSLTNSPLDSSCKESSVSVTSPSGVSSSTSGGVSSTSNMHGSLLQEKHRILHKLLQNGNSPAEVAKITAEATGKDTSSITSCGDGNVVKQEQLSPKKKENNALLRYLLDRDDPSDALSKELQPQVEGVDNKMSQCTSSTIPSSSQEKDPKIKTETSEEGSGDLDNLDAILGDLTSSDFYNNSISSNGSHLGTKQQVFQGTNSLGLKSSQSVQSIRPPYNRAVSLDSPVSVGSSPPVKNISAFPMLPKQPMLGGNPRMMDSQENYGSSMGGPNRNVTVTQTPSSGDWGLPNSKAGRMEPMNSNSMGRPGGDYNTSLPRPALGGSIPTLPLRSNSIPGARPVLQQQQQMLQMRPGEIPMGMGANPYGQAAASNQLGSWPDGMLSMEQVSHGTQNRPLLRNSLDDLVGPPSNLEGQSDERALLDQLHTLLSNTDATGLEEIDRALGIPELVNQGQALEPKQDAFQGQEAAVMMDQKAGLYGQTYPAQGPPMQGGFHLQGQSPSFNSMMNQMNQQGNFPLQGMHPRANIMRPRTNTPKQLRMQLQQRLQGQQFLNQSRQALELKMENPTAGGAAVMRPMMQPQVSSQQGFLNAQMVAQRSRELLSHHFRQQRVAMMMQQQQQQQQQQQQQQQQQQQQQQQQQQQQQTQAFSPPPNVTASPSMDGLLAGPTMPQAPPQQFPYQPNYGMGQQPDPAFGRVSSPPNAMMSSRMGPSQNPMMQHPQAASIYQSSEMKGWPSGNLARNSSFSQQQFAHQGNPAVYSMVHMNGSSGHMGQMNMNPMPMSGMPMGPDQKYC

[6] = cytotoxicity in HPDE-C7 cells, cell-based, fluorescence, HTS (AID 430); type: functional; details: Homo sapiens
Cytochrome P450 3A4 = Cytochrome P450 3A4 (Homo sapiens, UniProt P08684);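 note: CYP3A4 tested as one member of a cytochrome P450 panel screen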
Vero = assay: cells; type: functional; details: Chlorocebus sabaeus
[7] = cytotoxicity toward NIH3T3 fibroblasts, dose response, counter-screen, cell-based, ATP luminescence, mouse fibroblasts (AID 2010); type: functional;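 note: cells exposed to compound for about 90 hours before reading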
[8] = Counterscreen for AddAB inhibitors: absorbance-based bacterial cell-based high throughput dose response assay for inhibitors of bacterial viability. [Related pubchem assays (depositor defined):AID435030, AID449728, AID449731, AID488942, AID488955, AID488956]; type: functional
Streptococcus = assay: Group A Streptococcus viability loss, dose response, counter-screen for streptokinase expression inhibitor project, luminescence, BacTiterGlo (AID 1915); type: functional, organism-based;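 note: potency for reduction of bacterial viability or growth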
[9] = HepG2 cell cytotoxicity, dose response, cytotoxicity control for Shn3 inhibitor project, CellTiter-Glo, cherry-picked (AID 624134); type: functional, cell-based
[10] = inhibitors of intracellular T. cruzi replication, confirmation, NIH3T3 host cells, beta-gal luminescence (AID 2044); type: functional, cell-based;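 note: intracellular parasites grown in NIH/3T3 mouse fibroblasts as host cells; luminescent beta-galactosidase reporter signal from transgenic T. cruzi replicating inside host cells; inhibitors lower the luminescence signal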
INS1 = assay: beta cell apoptosis inhibitors, cytokine rescue, dose response, luminescence, retest (AID 449756); type: functional, cell-based; details: Rattus norvegicus;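 note: cell death triggered by IL-1 beta plus TNF-alpha plus IFN-gamma mixture; protective hits raise ATP signal compared with cytokine alone wells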
[11] = test system: Streptococcus sp. 'group A'; assay: growth inhibition of control SK(-) GAS strain, dose response, counter-screen for streptokinase expression inhibitor project, luminescence, kanamycin, BacTiterGlo, confirmation (AID 1900); type: functional, organism-based
cells [12] = type: functional, cell-based
[13] = Shn3 3'UTR reporter inhibitors, dose response, cell-based, Clone20 osteoblasts, firefly luciferase, cherry-picked (AID 624132); type: functional;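 note: firefly luciferase luminescence from reporter carrying the Shn3 3'UTR in osteoblasts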
[14] = control 3'UTR Renilla luciferase suppression, dose response, counter-screen for Shn3 inhibitor project, cell-based, Clone20-Shn3RL, cherry-picked (AID 624133); type: functional
Exodeoxyribonuclease V = molecular target: T3, Exodeoxyribonuclease V (Escherichia coli (strain K12), UniProt P04993+P07648+P08394); assay: E. coli RecBCD inhibitors, dose response, counter-screen for AddAB inhibitor project, absorbance, V66 E. coli, mutant T4 phage (AID 492957); type: functional, cell-based, Escherichia coli str. K-12 substr. MG1655
T3 sequence (P04993 whole entry): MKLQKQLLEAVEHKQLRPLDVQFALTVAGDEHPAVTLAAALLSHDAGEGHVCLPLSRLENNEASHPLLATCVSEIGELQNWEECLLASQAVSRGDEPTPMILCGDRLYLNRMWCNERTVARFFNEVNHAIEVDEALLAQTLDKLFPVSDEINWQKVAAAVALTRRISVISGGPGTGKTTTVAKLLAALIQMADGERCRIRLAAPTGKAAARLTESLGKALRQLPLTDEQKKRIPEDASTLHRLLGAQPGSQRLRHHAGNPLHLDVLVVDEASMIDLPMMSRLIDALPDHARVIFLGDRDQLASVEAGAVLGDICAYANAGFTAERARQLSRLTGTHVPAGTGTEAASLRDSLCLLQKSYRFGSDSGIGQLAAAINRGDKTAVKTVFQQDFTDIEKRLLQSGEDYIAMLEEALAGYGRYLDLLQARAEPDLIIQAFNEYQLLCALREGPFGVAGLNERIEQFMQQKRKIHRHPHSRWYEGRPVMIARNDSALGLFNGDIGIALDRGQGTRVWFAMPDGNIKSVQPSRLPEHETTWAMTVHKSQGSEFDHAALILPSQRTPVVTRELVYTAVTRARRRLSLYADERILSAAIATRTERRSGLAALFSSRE
T3 sequence (P07648 whole entry): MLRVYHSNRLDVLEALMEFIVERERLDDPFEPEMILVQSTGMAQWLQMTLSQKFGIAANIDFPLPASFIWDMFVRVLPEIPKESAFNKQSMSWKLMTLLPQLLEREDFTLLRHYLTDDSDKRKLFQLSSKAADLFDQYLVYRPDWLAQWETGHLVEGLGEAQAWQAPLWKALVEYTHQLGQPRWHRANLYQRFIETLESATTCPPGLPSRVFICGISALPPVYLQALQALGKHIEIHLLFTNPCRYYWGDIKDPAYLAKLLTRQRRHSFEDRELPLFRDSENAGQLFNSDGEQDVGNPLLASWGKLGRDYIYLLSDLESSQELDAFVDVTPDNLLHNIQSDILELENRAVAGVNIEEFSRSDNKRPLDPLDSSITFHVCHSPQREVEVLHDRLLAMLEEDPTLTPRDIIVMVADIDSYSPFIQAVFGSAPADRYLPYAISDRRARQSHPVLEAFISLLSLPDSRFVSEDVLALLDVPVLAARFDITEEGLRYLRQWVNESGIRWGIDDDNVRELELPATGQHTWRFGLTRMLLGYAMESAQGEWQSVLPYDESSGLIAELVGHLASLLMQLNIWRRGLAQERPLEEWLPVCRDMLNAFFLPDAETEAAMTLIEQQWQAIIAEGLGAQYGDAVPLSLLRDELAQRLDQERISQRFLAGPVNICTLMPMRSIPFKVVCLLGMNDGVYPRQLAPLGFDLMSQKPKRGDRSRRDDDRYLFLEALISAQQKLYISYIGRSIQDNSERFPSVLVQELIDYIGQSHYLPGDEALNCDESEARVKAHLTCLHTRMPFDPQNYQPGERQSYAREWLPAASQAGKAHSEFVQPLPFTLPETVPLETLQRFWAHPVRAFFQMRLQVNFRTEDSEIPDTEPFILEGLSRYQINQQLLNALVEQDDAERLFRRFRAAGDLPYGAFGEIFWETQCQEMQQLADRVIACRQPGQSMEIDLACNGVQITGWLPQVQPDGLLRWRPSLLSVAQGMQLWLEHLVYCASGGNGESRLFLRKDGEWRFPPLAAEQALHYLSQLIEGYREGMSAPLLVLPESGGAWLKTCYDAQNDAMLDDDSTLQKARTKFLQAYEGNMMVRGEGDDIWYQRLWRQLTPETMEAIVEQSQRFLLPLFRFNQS
T3 sequence (P08394 whole entry): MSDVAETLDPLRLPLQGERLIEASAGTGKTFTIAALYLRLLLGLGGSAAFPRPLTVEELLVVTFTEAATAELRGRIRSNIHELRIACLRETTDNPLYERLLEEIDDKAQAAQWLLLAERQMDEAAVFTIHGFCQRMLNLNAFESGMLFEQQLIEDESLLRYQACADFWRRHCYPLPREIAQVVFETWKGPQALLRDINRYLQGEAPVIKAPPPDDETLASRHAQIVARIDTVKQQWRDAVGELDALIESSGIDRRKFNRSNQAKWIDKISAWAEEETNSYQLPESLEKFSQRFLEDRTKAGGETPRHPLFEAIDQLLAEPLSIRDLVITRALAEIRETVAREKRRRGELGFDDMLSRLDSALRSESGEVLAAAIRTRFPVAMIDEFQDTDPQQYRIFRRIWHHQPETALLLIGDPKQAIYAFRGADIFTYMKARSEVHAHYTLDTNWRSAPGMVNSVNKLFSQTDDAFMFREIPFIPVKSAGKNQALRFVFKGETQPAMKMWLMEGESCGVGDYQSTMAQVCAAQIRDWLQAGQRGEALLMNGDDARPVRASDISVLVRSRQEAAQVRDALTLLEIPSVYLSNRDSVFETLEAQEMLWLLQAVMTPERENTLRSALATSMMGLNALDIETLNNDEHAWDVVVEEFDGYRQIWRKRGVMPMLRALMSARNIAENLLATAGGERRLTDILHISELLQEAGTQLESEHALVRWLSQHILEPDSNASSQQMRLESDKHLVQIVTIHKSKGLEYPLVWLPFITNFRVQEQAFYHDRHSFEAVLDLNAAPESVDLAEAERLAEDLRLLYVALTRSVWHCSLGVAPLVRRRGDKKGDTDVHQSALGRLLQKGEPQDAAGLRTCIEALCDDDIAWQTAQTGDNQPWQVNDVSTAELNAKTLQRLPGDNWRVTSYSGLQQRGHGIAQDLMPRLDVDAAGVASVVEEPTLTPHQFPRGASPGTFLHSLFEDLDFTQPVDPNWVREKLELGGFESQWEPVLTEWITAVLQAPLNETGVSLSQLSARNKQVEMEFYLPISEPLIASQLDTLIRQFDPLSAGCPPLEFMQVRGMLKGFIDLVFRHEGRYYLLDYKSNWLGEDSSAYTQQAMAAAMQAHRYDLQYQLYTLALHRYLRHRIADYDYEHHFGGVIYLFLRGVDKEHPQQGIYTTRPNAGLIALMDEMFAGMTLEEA

cells [15] = type: functional, cell-based; remark: listed apart in the source

COc1ccc2c(c1O)C13CCN(C)C(C2)C1CCC(=O)C3 (stereo not drawn)
EC50 [1]: 0.168 µM (active)

Cc1cccc(C(=O)NC(=S)NNC(=O)c2cccs2)c1
EC50 [1]: 2.99 µM (active)

CCOc1cccc2cc(-c3nnc(NCc4ccco4)s3)c(=O)oc12
IC50 (Estrogen receptor): 26.8 µM (active)
IC50 (SUMO-activating enzyme): 45.7 µM (active)

CCn1c2c(c3cc(Br)ccc31)CCC/C2=N\O
EC50 [2]: 25.7 µM (not active)
EC50 [3]: > 79.4 µM (inactive)
EC50 [4]: 10.8 µM (active)
EC50 [5]: > 79.4 µM (not active)
EC50 [6]: 10.8 µM (active)

Cn1c(=O)c(-c2ccc(F)cc2)nc2cnc(Oc3ccccc3)nc21
AC50 (Cytochrome P450 3A4): inconclusive

CCCC(=O)NC(c1ccc(Cl)cc1Cl)c1ccc2cccnc2c1O (stereo not drawn)
CC50 (Vero): 1.15 µM (active)
EC50 [7]: 0.543 µM (active)
IC50 [8]: > 119 µM (inactive)
EC50 (Streptococcus): 7.38 µM (active)
AC50 [9]: > 70 µM (inactive)
EC50 [10]: 0.102 µM (active)
AC50 (INS1): 0.491 µM (active)
EC50 [11]: 1.01 µM (active)
EC50 (cells [12]): 7.39 µM (active)
AC50 [13]: 0.638 µM (active)
AC50 [14]: 3.61 µM (active)
IC50 (Exodeoxyribonuclease V): > 119 µM (inactive)
EC50 (cells [15]): > 350 µM (not active)
